{
  "source": "paper PMC9027532",
  "about": "“Preclinical Pharmacokinetic Studies of a Novel Diuretic Inhibiting Urea Transporters” (Molecules, 2022)",
  "assay": "Stability of 25a in rat plasma, urine, feces and bile under storage conditions",
  "assay_type": "in vitro ADME",
  "experimental": "The stability profiles of 25a in the given matrices stored under different conditions (4 °C for 24 h, 25 °C for 4 h, three freeze–thaw cycles, and −80 °C for 30 days) are shown in Table 5.\nThe accuracy and precision were evaluated by calculating the intraday and interday RE and CV of the QC samples. The RE should be within ±15% of the theoretical concentrations (3, 100, and 800 ng/mL). The CV values should be no more than 15%. For the LLOQ, the cutoff values of RE and CV were 100% ± 20% and <20%. The stability of 25a in the biological matrices (rat plasma, urine, fecal homogenate, and bile) was assessed at 3, 100, and 800 ng/mL (n = 6) under different storage conditions, which included storage at room temperature for 4 h, storage at 4 °C for 24 h, three freeze–thaw cycles, and storage at −80 °C for 30 days.",
  "data": [
    {"smiles": "CC(=O)Nc1ccc(NC(=O)c2ccc(C(C)=O)o2)cc1", "note": "[Compound 25a, N-(4-acetamidophenyl)-5-acetylfuran-2-carboxamide]", "values": [
      {"measurement": "Stability RE", "setting": "rat bile, HQC 800 ng/mL, 4 °C for 24 h", "value": "−7.1", "unit": "%"},
      {"measurement": "Stability RE", "setting": "rat bile, HQC 800 ng/mL, 25 °C for 4 h", "value": "−7.8", "unit": "%"},
      {"measurement": "Stability RE", "setting": "rat bile, HQC 800 ng/mL, three freeze–thaw cycles", "value": "−12.2", "unit": "%"},
      {"measurement": "Stability RE", "setting": "rat bile, HQC 800 ng/mL, −80 °C for 30 days", "value": "−7.1", "unit": "%"},
      {"measurement": "Stability RE", "setting": "rat bile, LQC 3 ng/mL, 4 °C for 24 h", "value": "−14.7", "unit": "%"},
      {"measurement": "Stability RE", "setting": "rat bile, LQC 3 ng/mL, 25 °C for 4 h", "value": "−14.9", "unit": "%"},
      {"measurement": "Stability RE", "setting": "rat bile, LQC 3 ng/mL, three freeze–thaw cycles", "value": "−5.8", "unit": "%"},
      {"measurement": "Stability RE", "setting": "rat bile, LQC 3 ng/mL, −80 °C for 30 days", "value": "−2.1", "unit": "%"},
      {"measurement": "Stability RE", "setting": "rat bile, MQC 100 ng/mL, 4 °C for 24 h", "value": "−3.9", "unit": "%"},
      {"measurement": "Stability RE", "setting": "rat bile, MQC 100 ng/mL, 25 °C for 4 h", "value": "−5.1", "unit": "%"},
      {"measurement": "Stability RE", "setting": "rat bile, MQC 100 ng/mL, three freeze–thaw cycles", "value": "−5.2", "unit": "%"},
      {"measurement": "Stability RE", "setting": "rat bile, MQC 100 ng/mL, −80 °C for 30 days", "value": "−3.9", "unit": "%"},
      {"measurement": "Stability RE", "setting": "rat feces, HQC 800 ng/mL, 4 °C for 24 h", "value": "−5.3", "unit": "%"},
      {"measurement": "Stability RE", "setting": "rat feces, HQC 800 ng/mL, 25 °C for 4 h", "value": "−2.4", "unit": "%"},
      {"measurement": "Stability RE", "setting": "rat feces, HQC 800 ng/mL, three freeze–thaw cycles", "value": "−9.1", "unit": "%"},
      {"measurement": "Stability RE", "setting": "rat feces, HQC 800 ng/mL, −80 °C for 30 days", "value": "−5.3", "unit": "%"},
      {"measurement": "Stability RE", "setting": "rat feces, LQC 3 ng/mL, 4 °C for 24 h", "value": 3.9, "unit": "%"},
      {"measurement": "Stability RE", "setting": "rat feces, LQC 3 ng/mL, 25 °C for 4 h", "value": "−5.2", "unit": "%"},
      {"measurement": "Stability RE", "setting": "rat feces, LQC 3 ng/mL, three freeze–thaw cycles", "value": "−5.2", "unit": "%"},
      {"measurement": "Stability RE", "setting": "rat feces, LQC 3 ng/mL, −80 °C for 30 days", "value": 1.2, "unit": "%"},
      {"measurement": "Stability RE", "setting": "rat feces, MQC 100 ng/mL, 4 °C for 24 h", "value": 4.8, "unit": "%"},
      {"measurement": "Stability RE", "setting": "rat feces, MQC 100 ng/mL, 25 °C for 4 h", "value": 1.3, "unit": "%"},
      {"measurement": "Stability RE", "setting": "rat feces, MQC 100 ng/mL, three freeze–thaw cycles", "value": "−3.2", "unit": "%"},
      {"measurement": "Stability RE", "setting": "rat feces, MQC 100 ng/mL, −80 °C for 30 days", "value": 4.8, "unit": "%"},
      {"measurement": "Stability RE", "setting": "rat plasma, HQC 800 ng/mL, 4 °C for 24 h", "value": "−4.5", "unit": "%"},
      {"measurement": "Stability RE", "setting": "rat plasma, HQC 800 ng/mL, 25 °C for 4 h", "value": "−3.1", "unit": "%"},
      {"measurement": "Stability RE", "setting": "rat plasma, HQC 800 ng/mL, three freeze–thaw cycles", "value": "−7.6", "unit": "%"},
      {"measurement": "Stability RE", "setting": "rat plasma, HQC 800 ng/mL, −80 °C for 30 days", "value": "−4.5", "unit": "%"},
      {"measurement": "Stability RE", "setting": "rat plasma, LQC 3 ng/mL, 4 °C for 24 h", "value": 2.8, "unit": "%"},
      {"measurement": "Stability RE", "setting": "rat plasma, LQC 3 ng/mL, 25 °C for 4 h", "value": "−4.9", "unit": "%"},
      {"measurement": "Stability RE", "setting": "rat plasma, LQC 3 ng/mL, three freeze–thaw cycles", "value": "−3.6", "unit": "%"},
      {"measurement": "Stability RE", "setting": "rat plasma, LQC 3 ng/mL, −80 °C for 30 days", "value": 1.1, "unit": "%"},
      {"measurement": "Stability RE", "setting": "rat plasma, MQC 100 ng/mL, 4 °C for 24 h", "value": 3.7, "unit": "%"},
      {"measurement": "Stability RE", "setting": "rat plasma, MQC 100 ng/mL, 25 °C for 4 h", "value": "−2.5", "unit": "%"},
      {"measurement": "Stability RE", "setting": "rat plasma, MQC 100 ng/mL, three freeze–thaw cycles", "value": "−4.0", "unit": "%"},
      {"measurement": "Stability RE", "setting": "rat plasma, MQC 100 ng/mL, −80 °C for 30 days", "value": 3.7, "unit": "%"},
      {"measurement": "stability during sample preparation and storage", "setting": "rat plasma, urine, feces, bile, 4 °C 24 h, 25 °C 4 h, three freeze–thaw cycles, −80 °C 30 days", "value": "stable"},
      {"measurement": "Stability RE", "setting": "rat urine, HQC 800 ng/mL, 4 °C for 24 h", "value": "−2.3", "unit": "%"},
      {"measurement": "Stability RE", "setting": "rat urine, HQC 800 ng/mL, 25 °C for 4 h", "value": "−2.3", "unit": "%"},
      {"measurement": "Stability RE", "setting": "rat urine, HQC 800 ng/mL, three freeze–thaw cycles", "value": "−1.5", "unit": "%"},
      {"measurement": "Stability RE", "setting": "rat urine, HQC 800 ng/mL, −80 °C for 30 days", "value": "−2.3", "unit": "%"},
      {"measurement": "Stability RE", "setting": "rat urine, LQC 3 ng/mL, 4 °C for 24 h", "value": "−8.3", "unit": "%"},
      {"measurement": "Stability RE", "setting": "rat urine, LQC 3 ng/mL, 25 °C for 4 h", "value": 3.2, "unit": "%"},
      {"measurement": "Stability RE", "setting": "rat urine, LQC 3 ng/mL, three freeze–thaw cycles", "value": 5.8, "unit": "%"},
      {"measurement": "Stability RE", "setting": "rat urine, LQC 3 ng/mL, −80 °C for 30 days", "value": 6.2, "unit": "%"},
      {"measurement": "Stability RE", "setting": "rat urine, MQC 100 ng/mL, 4 °C for 24 h", "value": 2.5, "unit": "%"},
      {"measurement": "Stability RE", "setting": "rat urine, MQC 100 ng/mL, 25 °C for 4 h", "value": 4.3, "unit": "%"},
      {"measurement": "Stability RE", "setting": "rat urine, MQC 100 ng/mL, three freeze–thaw cycles", "value": "−5.2", "unit": "%"},
      {"measurement": "Stability RE", "setting": "rat urine, MQC 100 ng/mL, −80 °C for 30 days", "value": 2.5, "unit": "%"}
    ]}
  ]
}
